From patent publication US20240391940A1, “FUSED RING-CONTAINING COMPOUND, APPLICATION THEREOF, AND COMPOSITION CONTAINING SAME” (GenEros Biopharma Ltd., priority 2020, published 2024)
Where “and” joins values, the source holds several entries; their conditions need not be identical. Equal entries are not always repeated. Entries after “also recorded” stand apart in the source; their conditions may differ.

System: female BALB/c mice
Test: Acute toxicity, single administration in mice
Format: in vivo
Experimental: • Part I: Single administration. A total of 6 mice were used. They were randomly divided into 2 groups: the vehicle control and GEN1-284s (1000 mg/kg), dosed once by oral gavage and observed for 6 days, and changes in body weight and activities were recorded. • Part II: Multiple administrations. This experiment used a total of 6 mice. They were divided into two groups of 3: a GEN1-284s-1000 mg/kg group and a GEN1-284s-300 mg/kg group, and were intragastrically given GEN1-284s for 14 consecutive days at 200 μL each. The state and survival of the mice were observed every day, and their body weights were recorded. Two mice died 2 h after GEN1-284s-1000 mg/kg administration. The dose was changed to 600 mg/kg, and the experiment was continued.
This experiment used a total of 6 mice. They were randomly divided into two groups of 3: a vehicle group and a GEN1-284s-1000 mg/kg group, and were intragastrically dosed once on day 0 at 200 μL each. The state and survival of the mice were observed every day, and their body weights were recorded.
Changes in body weight and survival of the mice were observed during 6 days after the single administration, and changes in body weight and the survival of the mice were observed during 14 consecutive days of high-dose GEN1-284s administration.

## O=C(Cc1ccc2ncccc2c1)N1CCC(n2c(=O)n(COP(=O)([O-])[O-])c3cccc(C(F)(F)F)c32)CC1.[Na+].[Na+] [GEN1-284 salt, (2-Oxo-3-(1-(2-(quinolin-6-yl)acetyl)piperidin-4-yl)-4-(trifluoromethyl)-2,3-dihydro-1H-benzo[d]imidazol-1-yl)methyl disodium phosphate]
1000 mg/kg P.O once on day 0, Day 0, individual mice F4-F6
  Changes in body weight after the single administration: 23.5 and 21.2 and 21.1
1000 mg/kg P.O once on day 0, Day 1, individual mice F4-F6
  Changes in body weight after the single administration: 23.8 and 21.5 and 22
1000 mg/kg P.O once on day 0, Day 2, individual mice F4-F6
  Changes in body weight after the single administration: 23.5 and 21.9 and 21.7
1000 mg/kg P.O once on day 0, Day 3, individual mice F4-F6
  Changes in body weight after the single administration: 24.1 and 21.8 and 20.3
1000 mg/kg P.O once on day 0, Day 4, individual mice F4-F6
  Changes in body weight after the single administration: 24.3 and 21.8 and 22.7
1000 mg/kg P.O once on day 0, Day 5, individual mice F4-F6
  Changes in body weight after the single administration: 23.8 and 21.6 and 23.4
1000 mg/kg P.O once on day 0, Day 6, individual mice F4-F6
  Changes in body weight after the single administration: 23.4 and 21.6 and 22.8
Female BALB/c mice, 1000 mg/kg once by oral gavage, observed 6 days, 1000 mg/kg
  Effect of single administration on body weight, activity and survival: did not affect the body weight or activity; also recorded: did not affect the survival and body weight of the animals
